Experimental data: patent US9938269B2, “Inhibitor compounds of phosphodiesterase type 10A” (ABBVIE INC., priority 2011, dated 2018)
Where a name gives a salt, the structure may show the parent alone.

Experiments:
[1] = biological target: T1, PDE10A (human) (Homo sapiens, UniProt Q9Y233); assay: Measurement of PDE activity (HTRF cAMP kit), human PDE10A; format: biochemical; conditions: PDE enzymatic reaction, substrate 20 nM for PDE10, 60 minutes at 29 C
T1 construct: purchased BPS Bioscience
Procedure, shortened: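 Recombinant human PDE10A (10–250 pM range across PDEs) with 20 nM cAMP substrate in 20 mM Tris-HCl pH 7.5, 10 mM MgCl2, 0.1% BSA, compound pre-mixed with enzyme. Ran 60 min at 29 °C. Remaining cAMP read by HTRF, converted to % of uninhibited activity, and IC50 fitted.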

[2] = Determination of the microsomal half-life, rat liver microsomes; conditions: rat, liver microsomes, pH 7.4
[3] = Determination of the microsomal half-life, human liver microsomes; conditions: for microsomal CLint at 0.5 μM: human, liver microsomes, pH 7.4

T1 sequence (Q9Y233 whole entry): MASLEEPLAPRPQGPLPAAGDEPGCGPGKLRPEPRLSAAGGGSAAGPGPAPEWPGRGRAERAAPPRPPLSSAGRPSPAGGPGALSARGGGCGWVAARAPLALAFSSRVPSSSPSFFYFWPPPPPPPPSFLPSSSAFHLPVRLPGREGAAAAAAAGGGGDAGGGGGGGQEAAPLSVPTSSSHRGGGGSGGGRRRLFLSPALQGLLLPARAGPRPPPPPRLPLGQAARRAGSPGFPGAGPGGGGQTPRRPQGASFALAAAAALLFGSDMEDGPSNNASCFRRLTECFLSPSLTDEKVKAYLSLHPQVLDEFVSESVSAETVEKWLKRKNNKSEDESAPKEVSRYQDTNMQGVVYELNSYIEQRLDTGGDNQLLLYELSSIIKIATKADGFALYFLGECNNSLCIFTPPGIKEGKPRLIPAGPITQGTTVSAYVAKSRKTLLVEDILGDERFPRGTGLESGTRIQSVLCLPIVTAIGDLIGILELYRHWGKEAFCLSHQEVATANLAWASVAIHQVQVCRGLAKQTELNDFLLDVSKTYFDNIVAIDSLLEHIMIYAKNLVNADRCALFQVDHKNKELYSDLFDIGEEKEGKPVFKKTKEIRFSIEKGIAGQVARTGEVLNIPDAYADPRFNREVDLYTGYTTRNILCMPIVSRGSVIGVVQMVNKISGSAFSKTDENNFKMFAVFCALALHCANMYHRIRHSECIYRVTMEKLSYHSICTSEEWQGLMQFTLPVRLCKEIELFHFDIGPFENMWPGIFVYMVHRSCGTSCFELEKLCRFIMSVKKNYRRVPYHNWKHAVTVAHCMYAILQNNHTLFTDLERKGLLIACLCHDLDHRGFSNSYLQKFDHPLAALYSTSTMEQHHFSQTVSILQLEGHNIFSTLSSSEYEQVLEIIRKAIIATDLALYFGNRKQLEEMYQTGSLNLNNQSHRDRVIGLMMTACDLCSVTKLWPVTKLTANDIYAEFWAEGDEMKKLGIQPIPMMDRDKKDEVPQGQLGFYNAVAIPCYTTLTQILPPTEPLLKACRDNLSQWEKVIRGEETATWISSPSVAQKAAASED

Row | IC50 [1] [nM] | microsomal CLint at 0.5 μM [2] [µL/min/mg] | microsomal CLint at 0.5 μM [3] [µL/min/mg] | Compound | Human mCl (mikrosomal clearance) ([3]; human liver microsomes, 0.5 μM test substance, 0.25 mg microsomal protein, pH 7.4, 37° C., NADPH)
1 | < 100 | < 100 | < 100 | COc1ccnc2c1C(=O)N(CCc1ccc3ccccc3n1)C2 [compound 528, 4-Methoxy-6-(2-quinolin-2-yl-ethyl)-6,7-dihydro-pyrrolo[3,4-b]pyridin-5-one] | 
2 | < 100 | < 100 | < 100 | Cn1nccc1-c1ccc(F)c2c1C(=O)N(CCc1cn3ccccc3n1)C2 [Example 382, 4-Fluoro-2-(2-imidazo[1,2-a]pyridin-2-yl-ethyl)-7-(2-methyl-2H-pyrazol-3-yl)-2,3-dihydro-isoindol-1-one] | 
3 | < 100 | 100 to 220 | < 100 | CCc1csc(CCN2Cc3nccc(N4CCOCC4)c3C2=O)n1 [compound 516, 6-[2-(4-Ethylthiazol-2-yl)ethyl]-4-morpholino-7H-pyrrolo[3,4-b]pyridin-5-one] | 
4 | < 100 | < 100 | < 100 | Cn1c(CCN2Cc3nccc(-c4cccnc4)c3C2=O)nc2ccccc21 [Example 368, 6-[2-(1-Methyl-1H-benzoimidazol-2-yl)-ethyl]-4-pyridin-3-yl-6,7-dihydro-pyrrolo[3,4-b]pyridin-5-one] | 
5 | < 100 | < 100 | < 100 | O=C1c2c(-c3cn[nH]c3)ccc(F)c2CN1CCc1cn2ccccc2n1 [Example 383, 4-Fluoro-2-(2-imidazo[1,2-a]pyridin-2-yl-ethyl)-7-(1H-pyrazol-4-yl)-2,3-dihydro-isoindol-1-one] | 
6 | < 100 | < 100 | < 100 | COc1ccc(-c2ccncc2)c2c1C(=O)N(CCc1cn3ccccc3n1)C2 [compound 448, 2-(2-Imidazo[1,2-a]pyridin-2-yl-ethyl)-7-methoxy-4-pyridin-4-yl-2,3-dihydro-isoindol-1-one trifluoroacetate] | 
7 | < 100 | 100 to 220 | 100 to 220 | Nc1ncc2cc(-c3cccc4c3C(=O)N(CCc3ccc5ccccc5n3)C4)ccc2n1 [Example 12, 7-(2-Amino-quinazolin-6-yl)-2-(2-quinolin-2-yl-ethyl)-2,3-dihydro-isoindol-1-one] | 
8 | 100 to 200 | < 100 | < 100 | NCc1ccc(-c2cccc3c2C(=O)N(CCc2ccc4ccccc4n2)C3)cc1 [Example 193, 7-(4-Aminomethyl-phenyl)-2-(2-quinolin-2-yl-ethyl)-2,3-dihydro-isoindol-1-one] | 
9 | 200 to 500 | > 220 | 100 to 220 | Cc1noc(C)c1-c1ccnc2c1C(=O)N(CCc1ccc3ccccc3n1)C2 [Example 335, 4-(3,5-Dimethyl-isoxazol-4-yl)-6-(2-quinolin-2-yl-ethyl)-6,7-dihydro-pyrrolo[3,4-b]pyridin-5-one] | 
10 | < 100 | < 100 | > 220 | O=C1c2c(cccc2-c2cncnc2)CN1CCc1ccc2ccccc2n1 [Example 58, 7-Pyrimidin-5-yl-2-(2-quinolin-2-yl-ethyl)-2,3-dihydro-isoindol-1-one] | 
11 | < 100 | < 100 | < 100 | O=C1c2c(N3CCNCC3)ccnc2CN1CCc1ccc2ccccc2n1 [Example 163, 4-piperazin-1-yl-6-(2-quinolin-2-yl-ethyl)-6,7-dihydro-pyrrolo[3,4-b]pyridin-5-one] | 
12 | < 100 | 100 to 220 | 100 to 220 | O=C1c2c(-c3ccncc3)ccnc2CN1CCc1nc2ccc(F)cc2s1 [compound 402, 6-[2-(6-Fluoro-1,3-benzothiazol-2-yl)ethyl]-4-(4-pyridyl)-7H-pyrrolo[3,4-b]pyridin-5-one] | 
13 | < 100 | < 100 | < 100 | O=C1c2c(N3CCOCC3)ccnc2CN1CCc1cnc2ccccc2n1 [compound 495, 4-Morpholino-6-(2-quinoxalin-2-ylethyl)-7H-pyrrolo[3,4-b]pyridin-5-one trifluoroacetate] | 
14 | < 100 | < 100 | < 100 | COc1ccc(-c2ccnn2C)c2c1C(=O)N(CCc1cn3ccccc3n1)C2 [compound 464, 2-(2-Imidazo[1,2-a]pyridin-2-yl-ethyl)-7-methoxy-4-(2-methyl-2H-pyrazol-3-yl)-2,3-dihydro-isoindol-1-one trifluoroacetate] | 
15 | < 100 | 100 to 220 | 100 to 220 | COc1cccc(CCN2Cc3nccc(-c4ccncc4)c3C2=O)n1 [compound 553, 6-[2-(6-Methoxy-2-pyridyl)ethyl]-4-(4-pyridyl)-7H-pyrrolo[3,4-b]pyridin-5-one] | 
16 | 100 to 200 | 100 to 220 | 100 to 220 | O=C1c2c(cccc2NC2CCS(=O)(=O)C2)CN1CCc1ccc2ccccc2n1 (stereo not drawn) [Example 190, 7-(1,1-Dioxo-tetrahydro-thiophen-3-ylamino)-2-(2-quinolin-2-yl-ethyl)-2,3-dihydro-isoindol-1-one] | 
17 | < 100 | 100 to 220 | > 220 | O=C1c2c(cccc2N2CCC3(COC3)C2)CN1CCc1ccc2ccccc2n1 [Example 134, 7-(2-Oxa-6-aza-spiro[3.4]oct-6-yl)-2-(2-quinolin-2-yl-ethyl)-2,3-dihydro-isoindol-1-one] | 
18 | < 100 | < 100 | < 100 | O=C1c2c(NC3COC3)ccnc2CN1CCc1nc2ccccc2s1 [Example 376, 6-(2-Benzothiazol-2-yl-ethyl)-4-(oxetan-3-ylamino)-6,7-dihydro-pyrrolo[3,4-b]pyridin-5-one] | 
19 | < 100 | < 100 | 100 to 220 | Cn1c(CCN2Cc3cccc(N4CCS(=O)(=O)CC4)c3C2=O)nc2ccccc21 [Example 184, 7-(1,1-Dioxothiomorpholin-4-yl)-2-[2-(1-methyl-1H-benzoimidazol-2-yl)-ethyl]-2,3-dihydro-isoindol-1-one trifluoroacetate] | 
20 | < 100 | 100 to 220 | < 100 | O=C1c2c(-c3ccncc3)ccnc2CN1CCc1nc2ccc(Cl)cc2s1 [compound 403, 6-[2-(6-Chloro-1,3-benzothiazol-2-yl)ethyl]-4-(4-pyridyl)-7H-pyrrolo[3,4-b]pyridin-5-one] | 
21 | 100 to 200 | < 100 | < 100 | Cn1nccc1-c1ccnc2c1C(=O)N(CCc1nc3ccccc3s1)C2 [compound 432, 6-[2-(1,3-Benzothiazol-2-yl)ethyl]-4-(2-methylpyrazol-3-yl)-7H-pyrrolo[3,4-b]pyridin-5-one trifluoroacetate] | 
22 | 100 to 200 | < 100 | < 100 | Cn1nccc1-c1ccnc2c1C(=O)N(CCc1cn3ccccc3n1)C2 [Example 255, 6-(2-Imidazo[1,2-a]pyridin-2-yl-ethyl)-4-(2-methyl-2H-pyrazol-3-yl)-6,7-dihydro-pyrrolo[3,4-b]pyridin-5-one] | 
23 | < 100 | < 100 | < 100 | Cn1c(CCN2Cc3nccc(-c4ccncc4)c3C2=O)nc2ccccc21 [Example 367, 6-[2-(1-Methyl-1H-benzoimidazol-2-yl)-ethyl]-4-pyridin-4-yl-6,7-dihydro-pyrrolo[3,4-b]pyridin-5-one] | 
24 | < 100 | 100 to 220 | > 220 | Cn1c(CCN2Cc3cccc(-c4ccncc4)c3C2=O)nc2c(F)cccc21 [Example 300, 2-[2-(4-Fluoro-1-methyl-1H-benzoimidazol-2-yl)-ethyl]-7-pyridin-4-yl-2,3-dihydro-isoindol-1-one trifluoroacetate] | 
25 | < 100 | > 220 | 100 to 220 | COc1ccc(-c2ccnn2C)c2c1CN(CCc1ccc3ccccc3n1)C2=O [Example 210, 4-Methoxy-7-(2-methyl-2H-pyrazol-3-yl)-2-(2-quinolin-2-yl-ethyl)-2,3-dihydro-isoindol-1-one] | 
26 | < 100 | < 100 | < 100 | O=C1c2c(cccc2N2CCS(=O)(=O)CC2)CN1CCc1ccc2ccccc2n1 [Example 104, 7-(1,1-Dioxo-1-thiomorpholin-4-yl)-2-(2-quinolin-2-yl-ethyl)-2,3-dihydro-isoindol-1-one] | 
27 | < 100 | > 220 | 100 to 220 | COc1ccc(-c2cn[nH]c2)c2c1CN(CCc1ccc3ccccc3n1)C2=O [Example 180, 4-Methoxy-7-(1H-pyrazol-4-yl)-2-(2-quinolin-2-yl-ethyl)-2,3-dihydro-isoindol-1-one] | 
28 | 100 to 200 | < 100 | < 100 | O=C(O)C1CN(c2ccnc3c2C(=O)N(CCc2ccc4ccccc4n2)C3)C1 [compound 446, 1-[5-oxo-6-[2-(2-quinolyl)ethyl]-7H-pyrrolo[3,4-b]pyridin-4-yl]azetidine-3-carboxylic acid] | 

Row | Compound | IC50 [1] [nM] | microsomal CLint at 0.5 μM [2] [µL/min/mg] | microsomal CLint at 0.5 μM [3] [µL/min/mg] | Human mCl (mikrosomal clearance) ([3]; human liver microsomes, 0.5 μM test substance, 0.25 mg microsomal protein, pH 7.4, 37° C., NADPH)
29 | O=C(O)C(F)(F)F.O=C1c2c(-c3ccnc(F)c3)ccnc2CN1CCc1nc2ccccc2s1 [compound 421, 6-[2-(1,3-Benzothiazol-2-yl)ethyl]-4-(2-fluoro-4-pyridyl)-7H-pyrrolo[3,4-b]pyridin-5-one trifluoroacetate] | < 100 | < 100 |  | ◯
